Assay results: patent US12685777B2, “Compositions, systems, and methods for modulating a target gene” (The Board of Trustees of the Leland Stanford Junior …, priority 2022, dated 2026)

Legend:
[1] = tested on: BRD4, Pol II ser 2 phos, H3K27ac occupancy; assay: ChIP-seq of BRD4, Pol II ser 2 phos, H3K27ac in KARPAS422 cells; assay type: cell-based, human
Method: Cells were washed in PBS and crosslinked for 12 minutes in CiA Fix Buffer (50 mM HEPES pH 8.0, 1 mM EDTA, 0.5 mM EGTA, 100 mM NaCl) with addition of formaldehyde to a final concentration of 1%. The crosslinking reaction was quenched by glycine added at 0.125 M final concentration. Crosslinked cells were centrifuged at 1,000×g for 5 minutes. Nuclei were prepared by 10 minute incubation of resuspended pellet in CiA NP-Rinse 1 buffer (50 mM HEPES pH 8.0, 140 mM NaCl, 1 mM EDTA, 10% glycerol, 0.5% IPEGAL CA-630, 0.25% Triton X100) followed by wash in CIA NP-Rinse 2 buffer (10 mM Tris pH 8.0, 1 mM EDTA, 0.5 mM EGTA, 200 mM NaCl). The pellet was resuspended in CiA Covaris Shearing Buffer (0.1% SDS, 1 mM EDTA pH 8.0, 10 mM Tris HCl pH 8.0) with 1000× protease inhibitors (Roche) and sonicated for 20 minutes with Covaris E220 sonicator (Peak Power 140, Duty Factor 5.0, Cycles/Burst 200). The distribution of fragments was confirmed with agarose gel. 300 μL of chromatin per ChIP was used with anti-BRD4 antibodies (Cell Signaling E2A7X). 50 μg of chromatin was used with anti-Pol II ser 2 phos (Abcam ab5095) and anti-Pol II ser 5 phos (ActiveMotif 3E8) antibodies. 25 μg of chromatin was used with anti-H3K27ac (Abcam ab4729). For each Pol II ser 2 phos, Pol II ser 5 phos, and H3K27ac ChIP, exactly 20 ng (for Pol II ser 2 phos and ser 5 phos) or 50 ng (for H3K27ac) Drosophila chromatin (ActiveMotif #53083) was spiked-in with 2 μL spike-in-chromatin-specific antibody (ActiveMotif #61686). After overnight incubation at 4° C. in IP buffer (50 mM HEPES pH 7.5, 300 mM NaCl, 1 mM EDTA, 1% Triton X100, 0.1% sodium deoxycholic acid salt (DOC), 0.1% SDS), Ips were washed twice with IP buffer, once with DOC buffer (10 mM Tris pH 8, 0.25 M LiCl, 0.5% IPEGAL CA-630, 0.5% sodium deoxycholic acid salt (DOC), 1 mM EDTA), and, once with 10 mM Tris/1 mM EDTA buffer (TE) pH 8. Ips and inputs were reverse-crosslinked in TE/0.5% SDS/0.5 μg/μL proteinase K for 55° C./3 hours then 65° C./18 hours, then DNA was purified using a PCR cleanup spin column (Takara #74609). The sequencing library preparation was performed using NEBNext Ultra II DNA kit (#E7645S). Libraries were sequenced on an Illumina NovaSeq (Novogene).
The data quality was checked using fastqc. The raw reads were trimmed from adapters with trim_galore (parameters: —paired—255 Ilumine) and raw reads were aligned to hg38 human genome assembly and the dm6 fly genome assembly using bowtie2 (parameters: —local—maxins 1000). Low quality reads, duplicated reads and reads with multiple alignments were removed using samtools (Li et al., Bioinformatics (2009) 25: 2078-2079) and Picard (broadinstitute.github.io/picard/). Macs2 was used to map position of peaks with FDR cutoff of 0.05. Bedtools (Quinlan et al, Bioinformatics (2010) 26: 841-842) was used to find consensus set of peaks by merging peaks across multiple conditions (bedtools merge), count number of reads in peaks (bedtools intersect—c) and generate genome coverage (bedtools genomecov-bga). deepTools (Ramirez et al., Nucleic Acids Research (2016) 44: W160-W165). […] This procedure was carried out on a per-antigen basis (i.e., the H3K27ac ChIPs were treated separately from the Pol II ser 2 phos ChIPs which were separate from the Poll II ser 5 phos ChIPs). The average percentage of reads in each sample that mapped to the fly genome was 1.8±1.4% (mean±s.d.). All browser tracks and metaprofiles shown were calculated with spike-in normalized and input-subtracted data. The peak differential analysis and PCA analysis was performed using DESeq2^82.
BRD4 and other BET proteins have previously been implicated largely in transcriptional elongation, particularly in mediating P-TEFb/CDK9 activation of RNA Polymerase II ([…]) elongation activity by phosphorylation of serine 2 of the C-terminal domain (CTD) of Pol II ([…] ser 2 phos). […]

[2] = tested on: MYC, FOXO3, p21, BCL6, BRD4 protein levels in KARPAS422 and SUDHL5; assay: Western blots of target proteins in DLBCL cells; assay type: cell-based, human
Method: Cells were plated at 1 M/mL and treated with drug at indicated timepoints and doses. 2 M Cells were harvested on ice in RIPA buffer (50 mM Tris-HCl pH 8, 150 mM NaCl, 1% NP-40, 0.1% DOC, 1% SDS, protease inhibitor cocktail (homemade), 1 mM DTT) and 1:200 benzonase (Sigma #E1014) was added and incubated for 20 minutes. After 10 minute centrifugation at 14,000 g and 4° C., the supernatant was collected and protein concentration was measured by Bradford.
Because a high percentage of the TCIP1-treated cells contain fragmented DNA by TUNEL assay at 24 hours (FIG. 31, Panel E), many of the “reduced genes” could reflect DNA fragmentation as part of the apoptotic process and digestion to mononucleosomes. Among the group of genes whose expression was most reduced were MYC and its targets (FIGS. 33B, 36C). The top 100 most TCIP1-reduced genes were examined using ChIP-seq data of human transcription factors in blood cancer cell lines, and found the promoters of TCIP1-inhibited genes highly enriched for MYC binding in multiple datasets (FIG. 33, Panel C). This is significant since many DLBCLs are considered to be MYC-dependent.
Signaling via NF-kB is known to be repressed by BCL6.

[3] = after 2 hours, of 51,678 consensus peaks

| Structure (SMILES) | Time to Pol II serine 2 phosphorylation (transcriptional elongation) at BCL6 targets ([1]; 10 nM) [min] | Loss of BRD4 from enhancers and super enhancers ([1]; ChIP-seq) | Fraction of total BRD4 recruited / relocalized to BCL6 target genes ([1]; Karpas 422, one hour) | Concentration that regulates genes critical for DLBCL ([2]; Karpas 422, 24 hours, Western blot) [NM] | Increase of BRD4 at promoters of BCL6 target genes / genomic BCL6 binding sites ([1]; ChIP-seq, one hour) [%] | H3K27ac peaks decreased [1, 3] [peaks] | H3K27ac peaks increased [1, 3] [peaks] | Time to FOXO3 activation ([2]; 10 nM) | Effect on BRD4 protein levels ([2]; 20 hours, KARPAS422) | Concentration from which the long isoform of BCL6 protein is induced ([2]; DLBCL cell lines) [nM] | Concentration that activates FOXO3 ([2]; Western blot) [nM] | Concentration from which MYC protein levels are reduced ([2]; Western blot, DLBCL cells) | Time to reduction of MYC protein levels ([2]; after drug addition) [h] |
| --- | --- | --- | --- | --- | --- | --- | --- | --- | --- | --- | --- | --- | --- |
| CNC(=O)COc1cc2cc(Nc3nc(N4CCC(C(=O)NCCCCCCCNC(=O)C[C@@H]5N=C(c6ccc(Cl)cc6)c6c(sc(C)c6C)-n6c(C)nnc65)CC4)ncc3Cl)cc(OC)c2n(C)c1=O [JWZ-7-7, (S)-1-(5-chloro-4-((8-methoxy-1-methyl-3-(2-(methylamino)-2-oxoethoxy)-2-oxo-1,2-dihydroquinolin-6-yl)amino)pyrimidin-2-yl)-N-(7-(2-(4-(4-chlorophenyl)-2,3,9-trimethyl-6H-thieno[3,2-f][1,2,4]triazolo[4,3-a][1,4]diazepin-6-yl)acetamido)heptyl)piperidine-4-carboxamide] | ≤ 15 | about 10% | about 10% | < 1 | – | – | – | – | – | – | – | – | – |
| CNC(=O)COc1cc2cc(Nc3nc(N4CCC(C(=O)NCCCCCCCNC(=O)C[C@@H]5N=C(c6ccc(Cl)cc6)c6c(sc(C)c6C)-n6c(C)nnc65)CC4)ncc3Cl)cc(OC)c2n(C)c1=O [TCIP1] | – | – | – | – | 50 | 70 | 126 | within two hours | did not change substantially | 0.5 to 1 | 0.5 | less than 1 nM | ≤ 2 |
